Results taken from PMC10892984, “Novel Antineoplastic Inducers of Mitochondrial Apoptosis in Human Cancer Cells” (Molecules, 2024).
“And” between values parts separate entries of the source, which are not always exact repeats. Equal values may be shown once.

Experiments:
HCC-2998 = conditions: for TGI: HCC-2998, colon cancer, mutant p53, 48 h
HT29 = conditions: for TGI: HT29, colon cancer, mutant p53, 48 h
OVCAR-8 = conditions: for TGI: OVCAR-8, ovarian cancer, mutant p53, 48 h
SNB-19 = conditions: for TGI: SNB-19, CNS cancer (brain tumor), mutant p53, 48 h
MCF7 = conditions: for TGI: MCF7, breast cancer, wild-type p53, 48 h
ACHN = conditions: for TGI: renal cancer, wild-type p53, 48 h
NCI/ADR-RES = conditions: for TGI: ovarian cancer, mutant p53, 48 h
CCRF-CEM = conditions: for TGI: leukemia, mutant p53, 48 h
NCI-H226 = conditions: for TGI: NCI-H226, non-small-cell lung cancer, p53 Lit. inconclusive, 48 h
UO-31 = conditions: for TGI: UO-31, renal cancer, wild-type p53, 48 h
RXF 393 = conditions: for TGI: RXF 393, renal cancer, mutant p53, 48 h
SK-MEL-5 = conditions: for TGI: SK-MEL-5, melanoma, wild-type p53, 48 h
COLO 205 = conditions: for TGI: COLO 205, colon cancer, mutant p53, 48 h
T-47D = conditions: 48 h; for TGI: T-47D, breast cancer, mutant p53
[1] = system: 60 human cancer cell lines; conditions: for induction of cancer cell death (classification): NCI 60 panel overall; for Mean of Inhibition Data (MID) TGI, 10^MID: mean over all tested cell lines of the NCI 60 panel
From the text: The defined tumor inhibition criterion (GI50, TGI, or LC50) is recalculated in log10 expression, and the colored bars, which indicate then the sensitivity of the individual tumor cell line to the agent, are given in log10 units. […] The most important feature is at the bottom of the page: the MID (Mean of Inhibition Data) indicates the mean concentration for all tested cell lines required for the drug to reach the defined tumor inhibition criterion (GI50, TGI, or LC50). It is given in Log10GI50, Log10TGI, and Log10LC50. From those values, the corresponding MID is calculated. […] The MID can be transformed from logarithmic into linear concentrations by the formula: c = 10^MID.
The human tumor cell lines of the cancer screening panel are grown in RPMI-1640 medium containing 5% fetal bovine serum (FBS) and 2 mM L-glutamine. For a typical screening experiment, cells are inoculated into 96-well microtiter plates in 100 μL at plating densities ranging from 5000 to 40,000 cells/well, depending on the doubling time of individual cell lines. After cell inoculation, the microtiter plates are incubated at 37 °C, 5% CO2, 95% air, and 100% relative humidity for 24 h prior to the addition of experimental drugs. After 24 h, two plates of each cell line are fixed in situ with trichloroacetic acid (TCA) to represent a measurement of the cell population for each cell line at the time of drug addition (Tz). Experimental drugs are solubilized in dimethyl sulfoxide (DMSO) at 400-fold the desired final maximum test concentration and stored frozen prior to use. At the time of drug addition, an aliquot of frozen concentrate is thawed and diluted to twice the desired final maximum test concentration with a complete medium containing 50 μg/mL gentamicin. Additional four, 10-fold or ½ log serial dilutions are made to provide a total of five drug concentrations plus control. Aliquots of 100 μL of these different drug dilutions are added to the appropriate microtiter wells already containing 100 μL of the medium, resulting in the required final drug concentrations.
Following drug addition, the plates are incubated for an additional 48 h at 37 °C, 5% CO2, 95% air, and 100% relative humidity. For adherent cells, the assay is terminated by the addition of cold TCA. Cells are fixed in situ by the gentle addition of 50 μL of cold 50% (m/v) TCA (final concentration, 10% TCA) and incubated for 60 min at 4 °C. The supernatant is discarded, and the plates are washed five times with tap water and air dried. Sulforhodamine B (SRB) solution [100 μL at 0.4% (m/v) in 1% acetic acid] is added to each well, and plates are incubated for 10 min at room temperature. After staining, unbound dye is removed by washing five times with 1% acetic acid, and the plates are air dried. Bound stain is subsequently solubilized with 10 mM trizma® base [2-amino-2-(hydroxymethyl)-1,3-propandiol, tris base, trometamol], and the absorbance is read on an automated plate reader at a wavelength of λ = 515 nm. For suspension cells, the methodology is the same, except that the assay is terminated by fixing settled cells at the bottom of the wells by gently adding 50 μL of 80% TCA (final concentration, 16% TCA). Using the seven absorbance measurements [time zero, (Tz), control growth, (C), and test growth in the presence of the drug at the five concentration levels (Ti)], the percentage growth is calculated at each of the drug concentration levels. Percentage growth inhibition is calculated as:[(Ti − Tz)/(C − Tz)] × 100 for concentrations for which Ti ≥ Tz [(Ti − Tz)/Tz] × 100 for concentrations for which Ti < Tz
Three dose-response parameters are calculated for each experimental agent.

M14 = conditions: for TGI: M14, melanoma, mutant p53, 48 h
CAKI-1 = conditions: for TGI: CAKI-1, renal cancer, wild-type p53, 48 h
LOX IMVI = conditions: for TGI: melanoma, wild-type p53, 48 h
SK-OV-3 = conditions: for TGI: SK-OV-3, ovarian cancer, no p53 protein expressed, 48 h
A549 = conditions: for TGI: A549, non-small-cell lung cancer, wild-type p53, 48 h
KM-12 = conditions: for TGI: KM-12, colon cancer, mutant p53, 48 h
A498 = conditions: for TGI: A498, renal cancer, wild-type p53, 48 h
SN12C = conditions: for TGI: renal cancer, mutant p53, 48 h
MDA-MB-435 = conditions: for TGI: MDA-MB-435, melanoma, mutant p53, 48 h
IGROV1 = conditions: for TGI: IGROV1, ovarian cancer, mutant p53, 48 h
SF-295 = conditions: for TGI: SF-295, CNS cancer (brain tumor), mutant p53, 48 h
786-0 = conditions: for TGI: 786-0, renal cancer, mutant p53, 48 h
OVCAR-3 = conditions: for TGI: OVCAR-3, ovarian cancer, mutant p53, 48 h
[2] = Homo sapiens, 48 h, read-out: LC50

COc1cc2c(c(OC)c1OC)-c1ccc(NNC(N)=S)c(=O)cc1C(NC(C)=O)CC2 [Compound 2, N-[(aS,7S)-10-(2-carbamothioylhydrazinyl)-1,2,3-trimethoxy-9-oxo-5,6,7,9-tetrahydrobenzo[a]heptalen-7-yl]acetamide monohydrate × ⅔ (ethyl acetate)]
TGI (HCC-2998): 0.674 µM
GI50 (HCC-2998; Homo sapiens, HCC 2998, 48 h): 0.272 µM
CC50 (HCC-2998; Homo sapiens, HCC 2998, 48 h, read-out: LC50): > 100 µM
TGI (HT29): > 100 µM
GI50 (HT29; Homo sapiens, HT-29, 48 h): 0.336 µM
CC50 (HT29; Homo sapiens, HT-29, 48 h, read-out: LC50): > 100 µM
GI50 (OVCAR-8; Homo sapiens, OVCAR-8, 48 h): 0.97 µM
CC50 (OVCAR-8; Homo sapiens, OVCAR-8, 48 h, read-out: LC50): > 100 µM
TGI (OVCAR-8): > 100 µM
GI50 (SNB-19; Homo sapiens, SNB-19, 48 h): 0.686 µM
CC50 (SNB-19; Homo sapiens, SNB-19, 48 h, read-out: LC50): > 100 µM
TGI (SNB-19): > 100 µM
GI50 (MCF7; Homo sapiens, MCF7, 48 h): 0.415 µM
CC50 (MCF7; Homo sapiens, MCF7, 48 h, read-out: LC50): > 100 µM
TGI (MCF7): > 100 µM
GI50 (ACHN; Homo sapiens, 48 h): 8.5 µM
CC50 (ACHN; [2]): > 100 µM
TGI (ACHN): > 100 µM
GI50 (NCI/ADR-RES; Homo sapiens, 48 h): 25.3 µM
CC50 (NCI/ADR-RES; [2]): > 100 µM
TGI (NCI/ADR-RES): > 100 µM
GI50 (CCRF-CEM; Homo sapiens, 48 h): 0.422 µM
CC50 (CCRF-CEM; [2]): > 100 µM
TGI (CCRF-CEM): > 100 µM
GI50 (NCI-H226; Homo sapiens, NCI-H226, 48 h): 1.74 µM
CC50 (NCI-H226; Homo sapiens, NCI-H226, 48 h, read-out: LC50): > 100 µM
TGI (NCI-H226): > 100 µM
GI50 (UO-31; Homo sapiens, UO-31, 48 h): > 100 µM
CC50 (UO-31; Homo sapiens, UO-31, 48 h, read-out: LC50): > 100 µM
TGI (UO-31): > 100 µM
GI50 (RXF 393; Homo sapiens, RXF 393, 48 h): 0.298 µM
CC50 (RXF 393; Homo sapiens, RXF 393, 48 h, read-out: LC50): > 100 µM
TGI (RXF 393): 0.747 µM
GI50 (SK-MEL-5; Homo sapiens, SK-MEL-5, 48 h): 0.373 µM
CC50 (SK-MEL-5; Homo sapiens, SK-MEL-5, 48 h, read-out: LC50): > 100 µM
TGI (SK-MEL-5): 4.71 µM
TGI (COLO 205): 0.622 µM
GI50 (COLO 205; Homo sapiens, COLO 205, 48 h): 0.28 µM
CC50 (COLO 205; Homo sapiens, COLO 205, 48 h, read-out: LC50): 9.13 µM
GI50 (T-47D; Homo sapiens, T47D): > 100 µM
CC50 (T-47D; Homo sapiens, T47D, read-out: LC50): > 100 µM
TGI (T-47D): > 100 µM
GI50 ([1]; Homo sapiens, read-out: Mean of Inhibition Data (MID) GI50, 10^MID): 0.933 µM
CC50 ([1]; Homo sapiens, read-out: Mean of Inhibition Data (MID) LC50, 10^MID): 95.5 µM
induction of cancer cell death (classification) [1]: acts only cytostatic
Mean of Inhibition Data (MID) TGI, 10^MID [1]: 32.359 µM
GI50 (M14; Homo sapiens, M14, 48 h): 0.284 µM
CC50 (M14; Homo sapiens, M14, 48 h, read-out: LC50): > 100 µM
TGI (M14): 0.735 µM
TGI (CAKI-1): > 100 µM
GI50 (CAKI-1; Homo sapiens, CAKI-1, 48 h): 7.12 µM
CC50 (CAKI-1; Homo sapiens, CAKI-1, 48 h, read-out: LC50): > 100 µM
GI50 (LOX IMVI; Homo sapiens, 48 h): 0.71 µM
CC50 (LOX IMVI; [2]): > 100 µM
TGI (LOX IMVI): > 100 µM
GI50 (SK-OV-3; Homo sapiens, SK-OV-3, 48 h): 1.39 µM
CC50 (SK-OV-3; Homo sapiens, SK-OV-3, 48 h, read-out: LC50): > 100 µM
TGI (SK-OV-3): > 100 µM
TGI (A549): > 100 µM
GI50 (A549; Homo sapiens, A549, 48 h): 3.23 µM
CC50 (A549; Homo sapiens, A549, 48 h, read-out: LC50): > 100 µM
GI50 (KM-12; Homo sapiens, KM12, 48 h): 0.255 µM
CC50 (KM-12; Homo sapiens, KM12, 48 h, read-out: LC50): > 100 µM
TGI (KM-12): 0.801 µM
TGI (A498): > 100 µM
GI50 (A498; Homo sapiens, A498, 48 h): 2.09 µM
CC50 (A498; Homo sapiens, A498, 48 h, read-out: LC50): > 100 µM
GI50 (SN12C; Homo sapiens, 48 h): 0.828 µM
CC50 (SN12C; [2]): > 100 µM
TGI (SN12C): > 100 µM
GI50 (MDA-MB-435; Homo sapiens, MDA-MB-435, 48 h): 0.233 µM
CC50 (MDA-MB-435; Homo sapiens, MDA-MB-435, 48 h, read-out: LC50): > 100 µM
TGI (MDA-MB-435): 0.838 µM
GI50 (IGROV1; Homo sapiens, IGROV-1, 48 h): 1.18 µM
CC50 (IGROV1; Homo sapiens, IGROV-1, 48 h, read-out: LC50): > 100 µM
TGI (IGROV1): > 100 µM
GI50 (SF-295; Homo sapiens, SF-295, 48 h): 0.549 µM
CC50 (SF-295; Homo sapiens, SF-295, 48 h, read-out: LC50): > 100 µM
TGI (SF-295): > 100 µM
TGI (786-0): > 100 µM
GI50 (786-0; Homo sapiens, 786-0, 48 h): 0.818 µM
CC50 (786-0; Homo sapiens, 786-0, 48 h, read-out: LC50): > 100 µM
GI50 (OVCAR-3; Homo sapiens, OVCAR-3, 48 h): 0.217 µM
TGI (OVCAR-3): 0.459 µM

COc1cc2c(c(OC)c1OC)-c1ccc(NNC(=S)N(Cc3cccc(C[N+](Cc4cccc(CNC56CC7CC(CC(C7)C5)C6)c4)(Cc4cccc(CNC56CC7CC(CC(C7)C5)C6)c4)Cc4cccc(CN(C(=S)NNc5ccc6c(cc5=O)C(NC(C)=O)CCc5cc(OC)c(OC)c(OC)c5-6)C56CC7CC(CC(C7)C5)C6)c4)c3)C34CC5CC(CC(C5)C3)C4)c(=O)cc1C(NC(C)=O)CC2 [Compound 3, [(bis{3-[(tricyclo[3.3.1.1^3,7]decan-1-ylamino)methyl]benzyl}ammonio)bis(methanediylbenzene-3,1-diylmethanediyl)]di-2-[(aS,7S)-7-(acetylamino)-1,2,3-trimethoxy-9-oxo-5,6,7,9-tetrahydrobenzo[a]heptalen-10-yl]-N-(tricyclo[3.3.1.1^3,7]decan-1-yl)hydrazinecarbothioamide chloride pentahydrate]
TGI (HCC-2998): 1.47 µM
TGI (HT29): 2.81 µM
TGI (OVCAR-8): 7.49 µM
TGI (SNB-19): 6.20 µM
TGI (MCF7): 3.44 µM
TGI (ACHN): 7.99 µM
TGI (NCI/ADR-RES): 12.5 µM
TGI (CCRF-CEM): 2.47 µM
TGI (NCI-H226): 9.97 µM
TGI (UO-31): 7.20 µM
TGI (RXF 393): 6.65 µM
TGI (SK-MEL-5): 2.25 µM
TGI (COLO 205): 1.52 µM
TGI (T-47D): 9.40 µM
induction of cancer cell death (classification) [1]: tumoricidal
Mean of Inhibition Data (MID) TGI, 10^MID [1]: 4.571 µM and 4.57 µM
TGI (M14): 2.26 µM
TGI (CAKI-1): 7.37 µM
TGI (LOX IMVI): 2.86 µM
TGI (SK-OV-3): 7.51 µM
TGI (A549): 6.00 µM
TGI (KM-12): 4.52 µM
TGI (A498): 3.28 µM
TGI (SN12C): 6.90 µM
TGI (MDA-MB-435): 3.50 µM
TGI (IGROV1): 5.95 µM
TGI (SF-295): 5.92 µM
TGI (786-0): 5.28 µM
TGI (OVCAR-3): 6.53 µM
